Calls of active or inactive are those of the source.
Tests used:
[1] = biological target: Actin-related protein 2 (Homo sapiens, UniProt P61160)
[2] = biological target: T1, Beta-adrenergic receptor kinase 1 (Homo sapiens, UniProt P25098)
T1 sequence (P25098 whole entry): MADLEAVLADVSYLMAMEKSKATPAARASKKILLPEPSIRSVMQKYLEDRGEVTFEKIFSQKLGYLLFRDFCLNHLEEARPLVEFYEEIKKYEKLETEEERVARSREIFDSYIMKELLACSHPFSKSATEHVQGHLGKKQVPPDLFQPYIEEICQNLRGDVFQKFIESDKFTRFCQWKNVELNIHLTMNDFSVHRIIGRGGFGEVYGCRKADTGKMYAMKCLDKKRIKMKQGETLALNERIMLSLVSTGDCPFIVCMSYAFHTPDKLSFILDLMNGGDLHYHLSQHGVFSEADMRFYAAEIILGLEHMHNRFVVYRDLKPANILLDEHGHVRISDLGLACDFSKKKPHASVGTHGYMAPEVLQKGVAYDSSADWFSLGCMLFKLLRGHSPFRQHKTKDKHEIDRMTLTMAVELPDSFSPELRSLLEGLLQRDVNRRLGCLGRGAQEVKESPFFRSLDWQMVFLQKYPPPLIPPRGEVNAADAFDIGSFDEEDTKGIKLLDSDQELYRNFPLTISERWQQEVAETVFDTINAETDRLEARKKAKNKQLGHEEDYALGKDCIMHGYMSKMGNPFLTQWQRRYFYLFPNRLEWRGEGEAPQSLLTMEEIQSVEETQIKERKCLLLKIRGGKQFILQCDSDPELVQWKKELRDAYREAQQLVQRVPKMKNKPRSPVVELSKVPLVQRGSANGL

[3] = biological target: Cyclin-dependent kinase 4 (Homo sapiens, UniProt P11802)
[4] = biological target: Casein kinase I isoform gamma-1 (Homo sapiens, UniProt Q9HCP0)
[5] = biological target: T2, Electron transfer flavoprotein subunit beta (Homo sapiens, UniProt P38117)
T2 sequence (P38117 whole entry): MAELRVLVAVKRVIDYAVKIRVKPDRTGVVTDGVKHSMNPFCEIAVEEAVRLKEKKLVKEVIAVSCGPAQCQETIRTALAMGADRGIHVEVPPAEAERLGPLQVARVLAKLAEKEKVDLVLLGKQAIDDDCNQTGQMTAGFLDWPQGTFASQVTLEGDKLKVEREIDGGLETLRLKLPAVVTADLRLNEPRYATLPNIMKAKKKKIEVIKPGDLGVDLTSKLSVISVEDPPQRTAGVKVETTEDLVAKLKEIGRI

[6] = biological target: Midasin (Homo sapiens, UniProt Q9NU22)
[7] = biological target: T3, Phosphorylase b kinase gamma catalytic chain, liver/testis isoform (Homo sapiens, UniProt P15735)
T3 sequence (P15735 whole entry): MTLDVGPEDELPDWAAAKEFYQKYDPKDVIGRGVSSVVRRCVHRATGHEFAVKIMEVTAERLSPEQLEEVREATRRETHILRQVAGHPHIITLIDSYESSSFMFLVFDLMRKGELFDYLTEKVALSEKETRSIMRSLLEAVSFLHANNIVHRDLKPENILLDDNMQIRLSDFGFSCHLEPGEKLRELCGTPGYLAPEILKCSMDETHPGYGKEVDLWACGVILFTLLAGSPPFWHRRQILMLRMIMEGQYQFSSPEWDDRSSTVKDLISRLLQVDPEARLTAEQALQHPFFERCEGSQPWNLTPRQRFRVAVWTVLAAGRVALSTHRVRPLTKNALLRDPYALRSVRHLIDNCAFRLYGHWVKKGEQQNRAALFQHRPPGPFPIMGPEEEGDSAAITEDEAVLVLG

[8] = biological target: T4, Phosphatidylinositol 5-phosphate 4-kinase type-2 alpha (Homo sapiens, UniProt P48426)
T4 sequence (P48426 whole entry): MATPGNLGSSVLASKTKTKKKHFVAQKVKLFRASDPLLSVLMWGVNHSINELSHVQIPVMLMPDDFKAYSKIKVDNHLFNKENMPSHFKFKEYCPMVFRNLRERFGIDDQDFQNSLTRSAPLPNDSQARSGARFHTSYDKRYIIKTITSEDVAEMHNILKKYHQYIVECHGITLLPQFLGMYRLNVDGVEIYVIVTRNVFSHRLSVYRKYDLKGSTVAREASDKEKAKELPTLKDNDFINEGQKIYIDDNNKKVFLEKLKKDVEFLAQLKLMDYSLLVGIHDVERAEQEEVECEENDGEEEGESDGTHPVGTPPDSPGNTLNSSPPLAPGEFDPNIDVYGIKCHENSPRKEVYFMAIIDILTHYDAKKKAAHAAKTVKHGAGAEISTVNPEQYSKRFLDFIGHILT

[9] = biological target: cAMP-dependent protein kinase catalytic subunit beta (Homo sapiens, UniProt P22694)
[10] = biological target: Serine/threonine-protein kinase 10 (Homo sapiens, UniProt O94804)
Also: in the data inactive means no Kd found up to 30 µM.

Chain of Casein kinase I isoform gamma-1 (Q9HCP0 whole entry, canonical isoform): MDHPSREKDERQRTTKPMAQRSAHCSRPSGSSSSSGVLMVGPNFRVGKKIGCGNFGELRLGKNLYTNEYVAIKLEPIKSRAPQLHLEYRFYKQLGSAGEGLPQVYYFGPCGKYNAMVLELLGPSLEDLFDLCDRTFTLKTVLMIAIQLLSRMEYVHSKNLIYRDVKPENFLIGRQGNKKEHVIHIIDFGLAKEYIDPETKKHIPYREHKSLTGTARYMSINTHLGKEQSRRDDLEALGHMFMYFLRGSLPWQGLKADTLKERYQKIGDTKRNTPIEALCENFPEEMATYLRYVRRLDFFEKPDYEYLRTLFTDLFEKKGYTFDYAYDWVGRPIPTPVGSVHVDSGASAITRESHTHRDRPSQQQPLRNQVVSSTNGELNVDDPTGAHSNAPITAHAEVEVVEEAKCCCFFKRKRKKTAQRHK
Chain of Serine/threonine-protein kinase 10 (O94804 whole entry): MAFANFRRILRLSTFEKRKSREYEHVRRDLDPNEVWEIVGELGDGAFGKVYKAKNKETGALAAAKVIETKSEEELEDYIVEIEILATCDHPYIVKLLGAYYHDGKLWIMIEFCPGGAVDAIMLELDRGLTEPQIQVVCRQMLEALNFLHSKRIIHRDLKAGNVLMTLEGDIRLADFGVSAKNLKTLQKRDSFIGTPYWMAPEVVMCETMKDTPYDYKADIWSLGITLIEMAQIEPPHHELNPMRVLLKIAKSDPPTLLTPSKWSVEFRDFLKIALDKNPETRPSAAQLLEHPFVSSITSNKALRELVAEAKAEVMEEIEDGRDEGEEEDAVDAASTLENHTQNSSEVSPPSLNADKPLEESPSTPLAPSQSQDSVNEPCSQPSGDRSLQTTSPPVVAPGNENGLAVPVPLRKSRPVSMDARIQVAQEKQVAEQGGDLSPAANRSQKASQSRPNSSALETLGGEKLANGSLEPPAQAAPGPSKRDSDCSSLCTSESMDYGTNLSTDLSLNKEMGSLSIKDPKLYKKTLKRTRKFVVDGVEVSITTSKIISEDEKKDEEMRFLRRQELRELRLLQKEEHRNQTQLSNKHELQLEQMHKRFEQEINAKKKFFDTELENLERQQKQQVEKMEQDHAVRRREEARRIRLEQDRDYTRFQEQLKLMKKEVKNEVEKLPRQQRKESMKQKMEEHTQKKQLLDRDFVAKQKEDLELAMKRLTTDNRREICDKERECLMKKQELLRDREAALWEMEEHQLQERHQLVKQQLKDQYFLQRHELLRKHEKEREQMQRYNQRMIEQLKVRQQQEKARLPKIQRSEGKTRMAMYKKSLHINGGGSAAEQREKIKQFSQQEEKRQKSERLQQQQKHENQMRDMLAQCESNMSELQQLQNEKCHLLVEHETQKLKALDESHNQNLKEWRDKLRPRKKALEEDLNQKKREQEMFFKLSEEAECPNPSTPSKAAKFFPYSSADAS
Chain of Cyclin-dependent kinase 4 (P11802 whole entry, canonical isoform): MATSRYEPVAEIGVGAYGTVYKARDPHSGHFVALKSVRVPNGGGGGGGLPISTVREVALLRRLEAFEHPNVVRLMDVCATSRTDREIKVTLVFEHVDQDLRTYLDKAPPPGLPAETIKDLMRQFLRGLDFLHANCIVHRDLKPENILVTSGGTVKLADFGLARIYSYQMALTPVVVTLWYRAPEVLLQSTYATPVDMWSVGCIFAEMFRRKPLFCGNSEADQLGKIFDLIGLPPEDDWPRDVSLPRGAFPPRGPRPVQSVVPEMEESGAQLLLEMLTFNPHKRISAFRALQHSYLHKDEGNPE

Row | SMILES | Kd [1] | Kd [2] | Kd [3] | Kd [4] | Kd [5] | Kd [6] | Kd [7] | Kd [8] | Kd [9] | Kd [10]
1 | Cn1c(=O)c(F)c(Nc2ccc(I)cc2F)c2c(=O)n(C[C@@H](O)CO)cnc21 [TAK-733] | > 30 µM (inactive) | > 30 µM (inactive) | > 30 µM (inactive) | > 30 µM (inactive) | > 30 µM (inactive) | > 30 µM (inactive) | > 30 µM (inactive) | > 30 µM (inactive) | > 30 µM (inactive) | > 30 µM (inactive)
2 | COc1cc2ncnc(Nc3ccc(F)c(Cl)c3)c2cc1NC(=O)/C=C/CN1CCCCC1 [DACOMITINIB ANHYDROUS] | > 30 µM (inactive) | > 30 µM (inactive) | > 30 µM (inactive) | > 30 µM (inactive) | > 30 µM (inactive) | > 30 µM (inactive) | > 30 µM (inactive) | > 30 µM (inactive) | > 30 µM (inactive) | > 30 µM (inactive)
3 | COc1cc2ncnc(Nc3ccc(O)cc3)c2cc1OC [WHI-P131] | > 30 µM (inactive) | > 30 µM (inactive) | > 30 µM (inactive) | > 30 µM (inactive) | > 30 µM (inactive) | > 30 µM (inactive) | > 30 µM (inactive) | > 30 µM (inactive) | > 30 µM (inactive) | 2.63 µM (active)
4 | Cn1c(=O)n(-c2ccc(C(C)(C)C#N)cc2)c2c3cc(-c4cnc5ccccc5c4)ccc3ncc21 [DACTOLISIB] | > 30 µM (inactive) | > 30 µM (inactive) | > 30 µM (inactive) | > 30 µM (inactive) | > 30 µM (inactive) | > 30 µM (inactive) | > 30 µM (inactive) | > 30 µM (inactive) | > 30 µM (inactive) | > 30 µM (inactive)
5 | S=C(NCc1ccc2c(c1)OCO2)N1CCN(c2ncnc3c2oc2ccccc23)CC1 [AMUVATINIB] | > 30 µM (inactive) | > 30 µM (inactive) | > 30 µM (inactive) |  | > 30 µM (inactive) | > 30 µM (inactive) | > 30 µM (inactive) | > 30 µM (inactive) | > 30 µM (inactive) | > 30 µM (inactive)
6 | CCOc1ccn(-c2ccc(F)cc2)c(=O)c1C(=O)Nc1ccc(Oc2ccnc(N)c2Cl)c(F)c1 [BMS-777607] |  | > 30 µM (inactive) | > 30 µM (inactive) | > 30 µM (inactive) | > 30 µM (inactive) | > 30 µM (inactive) | > 30 µM (inactive) | > 30 µM (inactive) | > 30 µM (inactive) | > 30 µM (inactive)
7 | CC1(COc2ccc3c(c2)ncn3-c2ccc3cccc(N4CCC(N)CC4)c3n2)COC1 [CRENOLANIB] | > 30 µM (inactive) | > 30 µM (inactive) | > 30 µM (inactive) | > 30 µM (inactive) | 0.012 µM | > 30 µM (inactive) | 5.02 µM (active) | > 30 µM (inactive) | > 30 µM (inactive) | 3.43 µM (active)
8 | O=S(=O)(c1cccc2cnccc12)N1CCCNCC1 [FASUDIL] | > 30 µM (inactive) | > 30 µM (inactive) | > 30 µM (inactive) | > 30 µM (inactive) | > 30 µM (inactive) | > 30 µM (inactive) | > 30 µM (inactive) | > 30 µM (inactive) |  | > 30 µM (inactive)
9 | COc1cc(F)c(F)c(Nc2ccc(I)cc2F)c1NS(=O)(=O)C1(C[C@H](O)CO)CC1 [REFAMETINIB] |  | > 30 µM (inactive) | > 30 µM (inactive) | > 30 µM (inactive) | > 30 µM (inactive) | > 30 µM (inactive) | > 30 µM (inactive) | > 30 µM (inactive) | > 30 µM (inactive) | > 30 µM (inactive)
10 | COc1cccc2cc(-c3nc([C@H]4CC[C@H](C(=O)O)CC4)n4ncnc(N)c34)[nH]c12 [OSI-027] | > 30 µM (inactive) | > 30 µM (inactive) | > 30 µM (inactive) | > 30 µM (inactive) | > 30 µM (inactive) | > 30 µM (inactive) | > 30 µM (inactive) | > 30 µM (inactive) | > 30 µM (inactive) | > 30 µM (inactive)
11 | Cc1ccc(C(=O)Nc2ccc(Oc3cc4cnn(C)c4cc3-c3cn[nH]c3)c(F)c2)c(=O)n1-c1ccc(F)cc1 [MERESTINIB] | > 30 µM (inactive) | > 30 µM (inactive) | > 30 µM (inactive) | > 30 µM (inactive) | > 30 µM (inactive) | > 30 µM (inactive) | > 30 µM (inactive) | > 30 µM (inactive) | > 30 µM (inactive) | > 30 µM (inactive)
12 | CNC(=O)c1cccc(-c2ccc3c(N4CCOC[C@@H]4C)nc(N4CCOC[C@@H]4C)nc3n2)c1 [VISTUSERTIB] | > 30 µM (inactive) | > 30 µM (inactive) | > 30 µM (inactive) | > 30 µM (inactive) | > 30 µM (inactive) | > 30 µM (inactive) | > 30 µM (inactive) | > 30 µM (inactive) | > 30 µM (inactive) | > 30 µM (inactive)
13 | c1cc(OCCN2CCCCC2)cc(-c2n[nH]c3ccc(-c4nc[nH]n4)cc23)c1 [CC-401] | > 30 µM (inactive) | > 30 µM (inactive) | > 30 µM (inactive) | 0.282 µM (active) | > 30 µM (inactive) | > 30 µM (inactive) | > 30 µM (inactive) | > 30 µM (inactive) | > 30 µM (inactive) | > 30 µM (inactive)
14 | C=CC(=O)Nc1cc(Nc2nccc(-c3cn(C)c4ccccc34)n2)c(OC)cc1N(C)CCN(C)C [OSIMERTINIB] | > 30 µM (inactive) | > 30 µM (inactive) | > 30 µM (inactive) | > 30 µM (inactive) | > 30 µM (inactive) | > 30 µM (inactive) | > 30 µM (inactive) | > 30 µM (inactive) | > 30 µM (inactive) | > 30 µM (inactive)
15 | CC[C@@](C)(Nc1ccnc(-c2c[nH]c3ncccc23)n1)C(=O)NCC(F)(F)F [DECERNOTINIB] |  | > 30 µM (inactive) | > 30 µM (inactive) | > 30 µM (inactive) | > 30 µM (inactive) | > 30 µM (inactive) | > 30 µM (inactive) | > 30 µM (inactive) | > 30 µM (inactive) | 0.071 µM (active)
16 | CCc1nc(C(N)=O)c(Nc2ccc(N3CCC(N4CCN(C)CC4)CC3)c(OC)c2)nc1NC1CCOCC1 [GILTERITINIB] | > 30 µM (inactive) | > 30 µM (inactive) | 1.95 µM (active) | > 30 µM (inactive) | > 30 µM (inactive) | > 30 µM (inactive) |  | > 30 µM (inactive) | > 30 µM (inactive) | 0.149 µM (active)
17 | O=C(NOC[C@H](O)CO)c1ccc(F)c(F)c1Nc1ccc(I)cc1F [MIRDAMETINIB] | > 30 µM (inactive) | > 30 µM (inactive) | > 30 µM (inactive) | > 30 µM (inactive) | > 30 µM (inactive) |  | > 30 µM (inactive) | > 30 µM (inactive) | > 30 µM (inactive) | > 30 µM (inactive)

From ChEMBL document CHEMBL3991601, “The target landscape of clinical kinase drugs” (Science, 2017)
